From EP3789378A1, “PIPERIDINES OR PIPERIDONES SUBSTITUTED WITH UREA AND HETEROARYL” (Grünenthal GmbH, priority 2019, dated 2021)

target: T1, h FPR2 (Homo sapiens, UniProt P25090); assay: Agonistic activity in hFPR2-Aq-CHO cells (FLIPR Calcium 5 fluorescence assay); assay type: cell-based; details: 11 point half log dilution, final assay concentration from 10µM
T1 construct: expressed in transfected cells
T1 sequence (P25090 1-351): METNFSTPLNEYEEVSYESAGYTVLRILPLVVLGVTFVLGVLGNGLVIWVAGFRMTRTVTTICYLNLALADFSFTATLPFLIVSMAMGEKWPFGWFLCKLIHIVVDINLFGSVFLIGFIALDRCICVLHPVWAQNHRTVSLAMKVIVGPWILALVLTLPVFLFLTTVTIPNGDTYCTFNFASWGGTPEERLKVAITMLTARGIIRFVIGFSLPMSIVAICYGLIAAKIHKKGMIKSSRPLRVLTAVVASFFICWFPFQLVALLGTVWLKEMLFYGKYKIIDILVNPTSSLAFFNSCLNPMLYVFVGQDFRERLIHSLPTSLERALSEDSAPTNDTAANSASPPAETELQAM
How it was run: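 hFPR2-Aq-CHO cells were loaded with Calcium 5 dye for 30 min at 37 °C and equilibrated 10 min at room temperature. Compound (11 points, 10 µM to 100 pM final) was added in HBSS/HEPES/probenecid buffer pH 7.4. Fluorescence rise over basal across 5 min, relative to no-compound wells, gave EC50.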

Row | EC50 | Compound
1 | 0.09 nM | COc1ccc([C@@H]2CN(Cc3ccc(C4CC4)nc3)CC[C@H]2NC(=O)Nc2ccc(Cl)cc2)nc1 (relative stereo) [Ex-65, trans-1-(4-chlorophenyl)-3-[1-[(6-cyclopropylpyridin-3-yl)methyl]-3-(5-methoxypyridin-2-yl)piperidin-4-yl]urea]
2 | 2 nM | COc1ccc([C@@H]2CN(C(=O)CN(C)C)CC[C@H]2NC(=O)Nc2ccc(Cl)cc2)nc1 (racemic) [Ex-94, trans-1-(4-chloro-phenyl)-3-[1'-(2-dimethylamino-acetyl)-5-methoxy-1',2',3',4',5',6'-hexahydro-[2,3']bipyridinyl-4'-yl]-urea]
3 | 4 nM | O=C(Nc1ccc(Cl)cc1)N[C@@H]1CCN(Cc2ccc(C3CC3)nc2)C[C@H]1c1ccc(Cl)s1 (relative stereo) [Ex-73, trans-1-(4-chlorophenyl)-3-[3-(5-chlorothiophen-2-yl)-1-[(6-cyclopropylpyridin-3-yl)methyl]piperidin-4-yl]urea]
4 | 11 nM | COc1ccc([C@@H]2CN(c3ccncn3)CC[C@H]2NC(=O)Nc2cc(C)ns2)cn1 (relative stereo) [Ex-4, trans-1-(6'-methoxy-1-pyrimidin-4-yl-1,2,3,4,5,6-hexahydro-[3,3']bipyridinyl-4-yl)-3-(3-methyl-isothiazol-5-yl)-urea]
5 | 0.4 nM | O=C(Nc1ccc(Cl)cc1)N[C@@H]1CCN(Cc2ncccn2)C[C@H]1c1ccc(Cl)s1 (single isomer, unassigned) [Ex-46, trans-1-(4-chlorophenyl)-3-[3-(5-chlorothiophen-2-yl)-1-(pyrimidin-2-ylmethyl)piperidin-4-yl]urea]
6 | 4 nM | COc1cnc([C@@H]2CN(C3COC3)CC[C@H]2NC(=O)Nc2ccc(Cl)cc2)c(F)c1 (relative stereo) [Ex-218, trans-1-(4-chloro-phenyl)-3-(3-fluoro-5-methoxy-1'-oxetan-3-yl-1',2',3',4',5',6'-hexahydro-[2,3']bipyridinyl-4'-yl)-urea]
7 | 0.18 nM | COc1ccc([C@@H]2CN(CC3CC3)CC[C@H]2NC(=O)Nc2ccc(Cl)cc2)nc1 (single isomer, unassigned) [Ex-172, trans-1-(4-Chlorophenyl)-3-[1-(cyclopropyl-methyl)-3-(5-methoxy-pyridin-2-yl)-piperidin-4-yl]-urea]
8 | 1.2 nM | COc1ccc([C@@H]2CN(C(=O)C3CCNCC3)CC[C@H]2NC(=O)Nc2ccc(Cl)cc2)nc1 (relative stereo) [Ex-88, trans-1-(4-chloro-phenyl)-3-[5-methoxy-1'-(piperidine-4-carbonyl)-1',2',3',4',5',6'-hexahydro-[2,3']bipyridinyl-4'-yl]-urea]
9 | 0.7 nM | COc1cnc([C@@H]2CN(CC(C)(C)O)CC[C@H]2NC(=O)Nc2ccc(Cl)cc2)c(F)c1 (relative stereo) [Ex-208, trans-1-(4-chloro-phenyl)-3-[3-fluoro-1'-(2-hydroxy-2-methyl-propyl)-5-methoxy-1',2',3',4',5',6'-hexahydro-[2,3']bipyridinyl-4'-yl]-urea]
10 | 0.03 nM | COc1ccc([C@@H]2CN(Cc3ccn(S(C)(=O)=O)n3)CC[C@H]2NC(=O)Nc2ccc(Cl)cc2)nc1 (single isomer, unassigned) [Ex-43, trans-1-(4-chlorophenyl)-3-[1-[(1-methanesulfonyl-1H-pyrazol-3-yl)methyl]-3-(5-methoxypyridin-2-yl)piperidin-4-yl]urea]
11 | 0.09 nM | COc1ccc([C@@H]2CN(Cc3cc(C)on3)CC[C@H]2NC(=O)Nc2ccc(Cl)cc2)nc1 (single isomer, unassigned) [Ex-30, trans-1-(4-chlorophenyl)-3-[3-(5-methoxypyridin-2-yl)-1-[(5-methyl-1,2-oxazol-3-yl)methyl]piperidin-4-yl]urea]
12 | 0.4 nM | COc1cnc([C@@H]2CN(CC3COC3)CC[C@H]2NC(=O)Nc2ccc(Cl)cc2)c(F)c1 (relative stereo) [Ex-200, trans-1-(4-chloro-phenyl)-3-(3-fluoro-5-methoxy-1'-oxetan-3-ylmethyl-1',2',3',4',5',6'-hexahydro-[2,3']bipyridinyl-4'-yl)-urea]
13 | 56 nM | COc1ccc([C@@H]2CN(CCO)CC[C@H]2NC(=O)Nc2ccccc2)nc1 (relative stereo) [Ex-164, trans-1-[1-(2-Hydroxy-ethyl)-3-(5-methoxy-pyridin-2-yl)-piperidin-4-yl]-3-phenyl-urea]
14 | 0.3 nM | COc1ccc([C@@H]2CN(Cc3ccn(C)n3)CC[C@H]2NC(=O)Nc2ccc(Cl)cc2)nc1 (single isomer, unassigned) [Ex-39, trans-1-(4-chlorophenyl)-3-[3-(5-methoxypyridin-2-yl)-1-[(1-methyl-1H-pyrazol-3-yl)methyl]piperidin-4-yl]urea]
15 | 58 nM | COc1ccc([C@@H]2CN(C(=O)C3CCN(C)CC3)CC[C@H]2NC(=O)Nc2ccccc2)nc1 (relative stereo) [Ex-156, trans-1-[3-(5-Methoxy-pyridin-2-yl)-1-(1-methyl-piperidine-4-carbonyl)-piperidin-4-yl]-3-phenyl-urea]
16 | 2 nM | COc1ccc([C@H]2CN(CCO)CC[C@@H]2NC(=O)Nc2ccc(Cl)cc2)nc1 [Ex-206]
17 | 7 nM | COc1ccc([C@@H]2CN(C(=O)C3CC(O)C3)CC[C@H]2NC(=O)Nc2cc(C)ns2)nc1 (single isomer, unassigned) [Ex-138, trans-1-[1-(3-Hydroxy-cyclobutanecarbonyl)-3-(5-methoxy-pyridin-2-yl)-piperidin-4-yl]-3-(3-methyl-isothiazol-5-yl)-urea]
18 | 0.05 nM | COc1ccc([C@@H]2CN(c3ccc(F)cc3)C(=O)C[C@H]2NC(=O)Nc2ccc(Cl)cc2)nc1 (relative stereo) [Ex-10, trans-1-(4-chlorophenyl)-3-[1-(4-fluorophenyl)-5-(5-methoxypyridin-2-yl)-2-oxopiperidin-4-yl]urea]
19 | 0.2 nM | COc1ccc([C@@H]2CN(CCCN(C)C)CC[C@H]2NC(=O)Nc2ccc(Cl)cc2)nc1 (relative stereo) [Ex-111, trans-1-(4-chloro-phenyl)-3-[1'-(3-dimethylaminopropyl)-5-methoxy-1',2',3',4',5',6'-hexahydro-[2,3']bipyridinyl-4'-yl]-urea]
20 | 3 nM | Cc1cnc(N2CC[C@@H](NC(=O)Nc3cc(C)ns3)[C@H](c3ccc(Cl)cn3)C2)cn1 (relative stereo) [Ex-41, trans-1-[5-chloro-1'-(5-methyl-pyrazin-2-yl)-1',2',3',4',5',6'-hexahydro-[2,3']bipyridinyl-4'-yl]-3-(3-methyl-isothiazol-5-yl)-urea]
21 | 14 nM | O=C(Nc1ccc(Cl)cc1)N[C@@H]1CCN(CC2CCOCC2)C[C@H]1c1ccc(Cl)s1 (single isomer, unassigned) [Ex-85, trans-1-(4-chlorophenyl)-3-(3-(5-chlorothiophen-2-yl)-1-((tetrahydro-2H-pyran-4-yl)methyl)piperidin-4-yl)urea]
22 | 6 nM | COc1ccc([C@@H]2CN(CC3(O)COC3)CC[C@H]2NC(=O)Nc2cc(C)ns2)nc1 (relative stereo) [Ex-217, trans-1-[1'-(3-hydroxy-oxetan-3-ylmethyl)-5-methoxy-1',2',3',4',5',6'-hexahydro-[2,3']bipyridinyl-4'-yl]-3-(3-methyl-isothiazol-5-yl)-urea]
23 | 0.5 nM | COc1ccc([C@@H]2CN(C3(C#N)CC3)CC[C@H]2NC(=O)Nc2ccc(Cl)cc2)nc1 (relative stereo) [Ex-180, trans-1-(4-Chlorophenyl)-3-[1-(1-cyano-cyclopropyl)-3-(5-methoxy-pyridin-2-yl)-piperidin-4-yl]-urea]
24 | 0.07 nM | COc1ccc([C@@H]2CN(Cc3cncc(Cl)c3)CC[C@H]2NC(=O)Nc2ccc(Cl)cc2)nc1 (relative stereo) [Ex-69, trans-1-(4-chlorophenyl)-3-[1-[(5-chloropyridin-3-yl)methyl]-3-(5-methoxypyridin-2-yl)piperidin-4-yl]urea]
25 | 1.1 nM | COc1ccc([C@@H]2CN(CCC(N)=O)CC[C@H]2NC(=O)Nc2ccc(Cl)cc2)nc1 (relative stereo) [Ex-142, trans-3-[4-[[(4-Chlorophenyl)-carbamoyl]amino]-3-(5-methoxy-pyridin-2-yl)-piperidin-1-yl]-propionamide]

Row | Compound | EC50
26 | COc1ccc([C@@H]2CN(C(=O)c3ccc(C(F)(F)F)nc3)CC[C@H]2NC(=O)Nc2ccc(Cl)cc2)nc1 (single isomer, unassigned) [Ex-101, trans-1-(4-chlorophenyl)-3-[(5-methoxypyridin-2-yl)-1-{[6-(trifluoromethyl)pyridin-3-yl]carbonyl}piperidin-4-yl]urea] | 0.11 nM

same assay, conditions: agonistic response at 0.1µM

Row | activation at 0.1 µM | Compound
27 | 5% | COc1ccc([C@@H]2CN(CC(C)(C)O)CC[C@H]2NC(=O)Nc2cc(C)ns2)nc1 (relative stereo) [Ex-176, trans-1-[1-(2-Hydroxy-2-methyl-propyl)-3-(5-methoxy-pyridin-2-yl)-piperidin-4-yl]-3-(3-methyl-isothiazol-5-yl)-urea]
28 | 38% | O=C(Nc1ccc(Cl)cc1)N[C@@H]1CCN(C(=O)CCO)C[C@H]1c1ccc(Cl)s1 (relative stereo) [Ex-131, trans-1-(4-Chlorophenyl)-3-[3-(5-chloro-thiophen-2-yl)-1-(3-hydroxy-propanoyl)-piperidin-4-yl]-urea]
29 | 30% | Cc1cc(NC(=O)N[C@@H]2CCN(c3ccncn3)C[C@H]2c2ccc(Cl)cn2)sn1 (relative stereo) [Ex-17, trans-1-(5-chloro-1'-pyrimidin-4-yl-1',2',3',4',5',6'-hexahydro-[2,3']bipyridinyl-4'-yl)-3-(3-methyl-isothiazol-5-yl)-urea]
